Reference: US10906873B2, “Substituted cyclic amides as herbicides” (FMC Corporation, priority 2015, dated 2021)

Experiments:
Assay type in all cases: in vivo
[1] = tested on: barnyardgrass (Echinochloa crus-galli); experiment: Test A preemergence, barnyardgrass; conditions: 0 to 100 scale
Text: (§1) Seeds of plant species selected from barnyardgrass (Echinochloa crus-galli), crabgrass (large crabgrass, Digitaria sanguinalis), kochia (Kochia scoparia), ragweed (common ragweed, Ambrosia elatior), morningglory (Ipomoea spp.), velvetleaf (Abutilon theophrasti), ryegrass, It. (Italian ryegrass, Lolium multiflorum), foxtail, giant (giant foxtail, Setaria faberii), wheat (Triticum aestivum), corn (Zea mays), and pigweed (Amaranthus retroflexus), were planted into a blend of loam soil and sand and treated preemergence with a directed soil spray using test chemicals formulated in a non-phytotoxic solvent mixture which included a surfactant. At the same time, plants selected from these crop and weed species and also blackgrass (Alopecurus myosuroides), and galium (catchweed bedstraw, Galium aparine), were planted in pots containing the same blend of loam soil and sand and treated with postemergence applications of test chemicals formulated in the same manner. Plants ranged in height from 2 to 10 cm and were in the one- to two-leaf stage for the postemergence treatment. Treated plants and untreated controls were maintained in a greenhouse for approximately 10 d, after which time all treated plants were compared to untreated controls and visually evaluated for injury. Plant response ratings, summarized in Table A, are based on a 0 to 100 scale where 0 is no effect and 100 is complete control. A dash (-) response means no test result.

[2] = tested on: kochia (Kochia scoparia); experiment: Test A preemergence, kochia; conditions: 0 to 100 scale
Text: as §1

[3] = tested on: ragweed (common ragweed, Ambrosia elatior); experiment: Test A preemergence, ragweed; conditions: 0 to 100 scale
Text: as §1

[4] = tested on: ryegrass, It. (Italian ryegrass, Lolium multiflorum); experiment: Test A preemergence, ryegrass, It.; conditions: 0 to 100 scale
Text: as §1

[5] = tested on: foxtail, giant (giant foxtail, Setaria faberii); experiment: Test A preemergence, foxtail, giant; conditions: 0 to 100 scale
Text: as §1

[6] = tested on: pigweed (Amaranthus retroflexus); experiment: Test A preemergence, pigweed; conditions: 0 to 100 scale
Text: as §1

[7] = tested on: barnyardgrass (Echinochloa crus-galli); experiment: Test A postemergence, barnyardgrass; conditions: 0 to 100 scale
Text: as §1

[8] = tested on: kochia (Kochia scoparia); experiment: Test A postemergence, kochia; conditions: 0 to 100 scale
Text: as §1

[9] = tested on: ragweed (common ragweed, Ambrosia elatior); experiment: Test A postemergence, ragweed; conditions: 0 to 100 scale
Text: as §1

[10] = tested on: ryegrass, It. (Italian ryegrass, Lolium multiflorum); experiment: Test A postemergence, ryegrass, It.; conditions: 0 to 100 scale
Text: as §1

[11] = tested on: foxtail, giant (giant foxtail, Setaria faberii); experiment: Test A postemergence, foxtail, giant; conditions: 0 to 100 scale
Text: as §1

[12] = tested on: wheat (Triticum aestivum); experiment: Test A postemergence, wheat; conditions: 0 to 100 scale
Text: as §1

[13] = tested on: corn (Zea mays); experiment: Test A postemergence, corn; conditions: 0 to 100 scale
Text: as §1

[14] = tested on: pigweed (Amaranthus retroflexus); experiment: Test A postemergence, pigweed; conditions: 0 to 100 scale
Text: as §1

[15] = tested on: blackgrass (Alopecurus myosuroides); experiment: Test A postemergence, blackgrass; conditions: 0 to 100 scale
Text: as §1

[16] = tested on: galium (catchweed bedstraw, Galium aparine); experiment: Test A postemergence, galium; conditions: 0 to 100 scale
Text: as §1

[17] = tested on: barnyardgrass (Echinochloa crus-galli); experiment: Test B flooded paddy test, barnyardgrass; conditions: Flood, scale of 0 to 100 where 0 is no effect and 100 is complete control, 13 to 15 d
Protocol: (§2) Plant species in the flooded paddy test selected from rice (Oryza sativa), sedge, umbrella (small-flower umbrella sedge, Cyperus difformis), ducksalad (Heteranthera limosa), and barnyardgrass (Echinochloa crus-galli) were grown to the 2-leaf stage for testing. At time of treatment, test pots were flooded to 3 cm above the soil surface, treated by application of test compounds directly to the paddy water, and then maintained at that water depth for the duration of the test. Treated plants and controls were maintained in a greenhouse for 13 to 15 d, after which time all species were compared to controls and visually evaluated. Plant response ratings, summarized in Table B, are based on a scale of 0 to 100 where 0 is no effect and 100 is complete control. A dash (-) response means no test result.

[18] = tested on: ducksalad (Heteranthera limosa); experiment: Test B flooded paddy test, ducksalad; conditions: Flood, scale of 0 to 100 where 0 is no effect and 100 is complete control, 13 to 15 d
Protocol: as §2

[19] = tested on: rice (Oryza sativa); experiment: Test B flooded paddy test, rice; conditions: Flood, scale of 0 to 100 where 0 is no effect and 100 is complete control, 13 to 15 d
Protocol: as §2

[20] = tested on: sedge, umbrella (small-flower umbrella sedge, Cyperus difformis); experiment: Test B flooded paddy test, sedge, umbrella; conditions: Flood, scale of 0 to 100 where 0 is no effect and 100 is complete control, 13 to 15 d
Protocol: as §2

Compound: O=C1NCC(Cc2cccc(F)c2F)C1C(=O)Nc1cccc(F)c1F (stereo not drawn) [Compound 8]
- Plant response rating, Barnyardgrass ([1]; 125 g ai/ha): 0
- Plant response rating, Barnyardgrass ([1]; 500 g ai/ha): 0
- Plant response rating, Kochia ([2]; 125 g ai/ha): 0
- Plant response rating, Kochia ([2]; 500 g ai/ha): 0
- Plant response rating, Ragweed ([3]; 125 g ai/ha): 0
- Plant response rating, Ragweed ([3]; 500 g ai/ha): 0
- Plant response rating, Ryegrass, It. ([4]; 125 g ai/ha): 0
- Plant response rating, Ryegrass, It. ([4]; 500 g ai/ha): 0
- Plant response rating, Foxtail, Giant ([5]; 125 g ai/ha): 0
- Plant response rating, Foxtail, Giant ([5]; 500 g ai/ha): 50
- Plant response rating, Pigweed ([6]; 125 g ai/ha): 0
- Plant response rating, Pigweed ([6]; 500 g ai/ha): 0
- Plant response rating, Barnyardgrass ([7]; 125 g ai/ha): 0
- Plant response rating, Barnyardgrass ([7]; 500 g ai/ha): 0
- Plant response rating, Kochia ([8]; 125 g ai/ha): 0
- Plant response rating, Kochia ([8]; 500 g ai/ha): 0
- Plant response rating, Ragweed ([9]; 125 g ai/ha): 0
- Plant response rating, Ragweed ([9]; 500 g ai/ha): 0
- Plant response rating, Ryegrass, It. ([10]; 125 g ai/ha): 0
- Plant response rating, Ryegrass, It. ([10]; 500 g ai/ha): 0
- Plant response rating, Foxtail, Giant ([11]; 125 g ai/ha): 0
- Plant response rating, Foxtail, Giant ([11]; 500 g ai/ha): 0
- Plant response rating, Wheat ([12]; 125 g ai/ha): 0
- Plant response rating, Wheat ([12]; 500 g ai/ha): 0
- Plant response rating, Corn ([13]; 125 g ai/ha): 0
- Plant response rating, Corn ([13]; 500 g ai/ha): 0
- Plant response rating, Pigweed ([14]; 125 g ai/ha): 0
- Plant response rating, Pigweed ([14]; 500 g ai/ha): 0
- Plant response rating, Blackgrass ([15]; 125 g ai/ha): 0
- Plant response rating, Blackgrass ([15]; 500 g ai/ha): 0
- Plant response rating, Galium ([16]; 125 g ai/ha): 0
- Plant response rating, Galium ([16]; 500 g ai/ha): 0
- Plant response rating, Barnyardgrass ([17]; 500 g ai/ha): 0
- Plant response rating, Ducksalad ([18]; 500 g ai/ha): 0
- Plant response rating, Rice ([19]; 500 g ai/ha): 0
- Plant response rating, Sedge, Umbrella ([20]; 500 g ai/ha): 0

Compound: O=C1NCC(CCc2ccccc2)C1C(=O)Nc1ccccc1F (stereo not drawn) [Compound 20]
- Plant response rating, Barnyardgrass ([1]; 125 g ai/ha): 0
- Plant response rating, Barnyardgrass ([1]; 500 g ai/ha): 0
- Plant response rating, Kochia ([2]; 125 g ai/ha): 0
- Plant response rating, Kochia ([2]; 500 g ai/ha): 0
- Plant response rating, Ragweed ([3]; 125 g ai/ha): 0
- Plant response rating, Ragweed ([3]; 500 g ai/ha): 0
- Plant response rating, Ryegrass, It. ([4]; 125 g ai/ha): 0
- Plant response rating, Ryegrass, It. ([4]; 500 g ai/ha): 0
- Plant response rating, Foxtail, Giant ([5]; 125 g ai/ha): 0
- Plant response rating, Foxtail, Giant ([5]; 500 g ai/ha): 0
- Plant response rating, Pigweed ([6]; 125 g ai/ha): 0
- Plant response rating, Pigweed ([6]; 500 g ai/ha): 0
- Plant response rating, Barnyardgrass ([7]; 125 g ai/ha): 0
- Plant response rating, Barnyardgrass ([7]; 500 g ai/ha): 0
- Plant response rating, Kochia ([8]; 125 g ai/ha): 0
- Plant response rating, Kochia ([8]; 500 g ai/ha): 0
- Plant response rating, Ragweed ([9]; 125 g ai/ha): 0
- Plant response rating, Ragweed ([9]; 500 g ai/ha): 0
- Plant response rating, Ryegrass, It. ([10]; 125 g ai/ha): 0
- Plant response rating, Ryegrass, It. ([10]; 500 g ai/ha): 0
- Plant response rating, Foxtail, Giant ([11]; 125 g ai/ha): 0
- Plant response rating, Foxtail, Giant ([11]; 500 g ai/ha): 0
- Plant response rating, Wheat ([12]; 125 g ai/ha): 0
- Plant response rating, Wheat ([12]; 500 g ai/ha): 0
- Plant response rating, Corn ([13]; 125 g ai/ha): 0
- Plant response rating, Corn ([13]; 500 g ai/ha): 0
- Plant response rating, Pigweed ([14]; 125 g ai/ha): 0
- Plant response rating, Pigweed ([14]; 500 g ai/ha): 0
- Plant response rating, Blackgrass ([15]; 125 g ai/ha): 0
- Plant response rating, Blackgrass ([15]; 500 g ai/ha): 0
- Plant response rating, Galium ([16]; 125 g ai/ha): 0
- Plant response rating, Galium ([16]; 500 g ai/ha): 0
- Plant response rating, Barnyardgrass ([17]; 250 g ai/ha): 0
- Plant response rating, Ducksalad ([18]; 250 g ai/ha): 50
- Plant response rating, Rice ([19]; 250 g ai/ha): 0
- Plant response rating, Sedge, Umbrella ([20]; 250 g ai/ha): 0

Compound: O=C1NCC(C#Cc2cccc(Cl)c2)C1C(=O)Nc1ccc(F)c(F)c1F (stereo not drawn) [Compound 26]
- Plant response rating, Barnyardgrass ([1]; 125 g ai/ha): 0
- Plant response rating, Barnyardgrass ([1]; 500 g ai/ha): 70
- Plant response rating, Kochia ([2]; 125 g ai/ha): 0
- Plant response rating, Kochia ([2]; 500 g ai/ha): 0
- Plant response rating, Ragweed ([3]; 125 g ai/ha): 0
- Plant response rating, Ragweed ([3]; 500 g ai/ha): 0
- Plant response rating, Ryegrass, It. ([4]; 125 g ai/ha): 0
- Plant response rating, Ryegrass, It. ([4]; 500 g ai/ha): 0
- Plant response rating, Foxtail, Giant ([5]; 125 g ai/ha): 0
- Plant response rating, Foxtail, Giant ([5]; 500 g ai/ha): 70
- Plant response rating, Pigweed ([6]; 125 g ai/ha): 0
- Plant response rating, Pigweed ([6]; 500 g ai/ha): 40
- Plant response rating, Barnyardgrass ([7]; 125 g ai/ha): 0
- Plant response rating, Barnyardgrass ([7]; 500 g ai/ha): 60
- Plant response rating, Kochia ([8]; 125 g ai/ha): 0
- Plant response rating, Kochia ([8]; 500 g ai/ha): 0
- Plant response rating, Ragweed ([9]; 125 g ai/ha): 0
- Plant response rating, Ragweed ([9]; 500 g ai/ha): 0
- Plant response rating, Ryegrass, It. ([10]; 125 g ai/ha): 0
- Plant response rating, Ryegrass, It. ([10]; 500 g ai/ha): 0
- Plant response rating, Foxtail, Giant ([11]; 125 g ai/ha): 0
- Plant response rating, Foxtail, Giant ([11]; 500 g ai/ha): 40
- Plant response rating, Wheat ([12]; 125 g ai/ha): 0
- Plant response rating, Wheat ([12]; 500 g ai/ha): 0
- Plant response rating, Corn ([13]; 125 g ai/ha): 0
- Plant response rating, Corn ([13]; 500 g ai/ha): 0
- Plant response rating, Pigweed ([14]; 125 g ai/ha): 0
- Plant response rating, Pigweed ([14]; 500 g ai/ha): 0
- Plant response rating, Blackgrass ([15]; 125 g ai/ha): 0
- Plant response rating, Blackgrass ([15]; 500 g ai/ha): 0
- Plant response rating, Galium ([16]; 125 g ai/ha): 0
- Plant response rating, Galium ([16]; 500 g ai/ha): 0
- Plant response rating, Barnyardgrass ([17]; 250 g ai/ha): 0
- Plant response rating, Ducksalad ([18]; 250 g ai/ha): 75
- Plant response rating, Rice ([19]; 250 g ai/ha): 0
- Plant response rating, Sedge, Umbrella ([20]; 250 g ai/ha): 0
